According to the supplement of paper PMC7287046:

Experiments:
Conditions in all cases: exposure time: 72 h
[1] = system: KNS-42; test: Bliss synergy score (Combenefit); higher = more synergy; extreme values may be limits of the assay
Method in brief: (§1)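 Glioma cell lines in 96-well plates received pairs of drugs 24 h after plating, with an untreated control repeated sixfold. Each drug's top dose was set at its own IC50. The doses ran in 6 × 6 matrices of twofold steps, and readings taken three days later were made at least in triplicate. Viability by CellTiter-Glo, as percent of DMSO controls, was normalised and scored for Loewe, Bliss and highest single agent synergy in Combenefit.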

[2] = system: U118; test: as above
Method in brief: as §1

[3] = system: SF268; test: as above
Method in brief: as §1

[4] = system: SNB75; test: as above
Method in brief: as §1

[5] = system: SF539; test: as above
Method in brief: as §1

[6] = system: T98G; test: as above
Method in brief: as §1

[7] = system: U251; test: as above
Method in brief: as §1

[8] = system: AM-38; test: as above
Method in brief: as §1

[9] = system: U87; test: as above
Method in brief: as §1

[10] = system: KNS-42; test: Loewe synergy score (Combenefit); higher = more synergy; extreme values may be limits of the assay
Method in brief: as §1

[11] = system: U118; test: as above
Method in brief: as §1

[12] = system: SF268; test: as above
Method in brief: as §1

[13] = system: SNB75; test: as above
Method in brief: as §1

[14] = system: SF539; test: as above
Method in brief: as §1

[15] = system: T98G; test: as above
Method in brief: as §1

[16] = system: U251; test: as above
Method in brief: as §1

[17] = system: AM-38; test: as above
Method in brief: as §1

[18] = system: U87; test: as above
Method in brief: as §1

[19] = system: KNS-42; test: HSA synergy score (Combenefit); higher = more synergy
Method in brief: as §1

[20] = system: U118; test: as above
Method in brief: as §1

[21] = system: SF268; test: as above
Method in brief: as §1

[22] = system: SNB75; test: as above
Method in brief: as §1

[23] = system: SF539; test: as above
Method in brief: as §1

[24] = system: T98G; test: as above
Method in brief: as §1

[25] = system: U251; test: as above
Method in brief: as §1

[26] = system: AM-38; test: as above
Method in brief: as §1

[27] = system: U87; test: as above
Method in brief: as §1

[28] = system: T98; test: Chou-Talalay combination index (dimensionless); higher = less synergy (more antagonism)
Method in brief: (§2)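 For combination testing, glioma cell lines were seeded at optimal density in 96-well plates, or in low-adhesion plates for primary cultures. Treatment began after 24 h with two drugs crossed in a 6 × 6 matrix of twofold dilutions, alongside an untreated control repeated sixfold, and CellTiter-Glo was read three days later at least in triplicate. Dilutions of each drug started from its single-drug IC50. Viability relative to DMSO controls, in percent, fed a median-effect calculation of the Chou–Talalay combination index.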

[29] = system: U118; test: as above
Method in brief: as §2

[30] = system: SF268; test: as above
Method in brief: as §2

[31] = system: SNB75; test: as above
Method in brief: as §2

[32] = system: SF539; test: as above
Method in brief: as §2

[33] = system: KNS42; test: as above
Method in brief: as §2

[34] = system: U251; test: as above
Method in brief: as §2

[35] = system: U87; test: as above
Method in brief: as §2

[36] = system: AM38; test: as above
Method in brief: as §2

Compound | Bliss synergy score [1] | Bliss synergy score [2] | Bliss synergy score [3] | Bliss synergy score [4] | Bliss synergy score [5] | Bliss synergy score [6] | Bliss synergy score [7] | Bliss synergy score [8] | Bliss synergy score [9] | Loewe synergy score [10] | Loewe synergy score [11] | Loewe synergy score [12] | Loewe synergy score [13] | Loewe synergy score [14] | Loewe synergy score [15] | Loewe synergy score [16] | Loewe synergy score [17] | Loewe synergy score [18] | HSA synergy score [19] | HSA synergy score [20] | HSA synergy score [21] | HSA synergy score [22] | HSA synergy score [23] | HSA synergy score [24] | HSA synergy score [25] | HSA synergy score [26] | HSA synergy score [27] | Chou-Talalay combination index [28] | Chou-Talalay combination index [29] | Chou-Talalay combination index [30] | Chou-Talalay combination index [31] | Chou-Talalay combination index [32] | Chou-Talalay combination index [33] | Chou-Talalay combination index [34] | Chou-Talalay combination index [35] | Chou-Talalay combination index [36]
CCC(=O)N1CCN(c2ccc(-n3c(=O)ccc4cnc5ccc(-c6cnc7ccccc7c6)cc5c43)cc2C(F)(F)F)CC1 [Torin1] + N#CC(c1ccnc(NCCc2cccnc2)n1)c1nc2ccccc2s1 [AS601245] | 0 | 0 | 0.983 | 0 | 4.4 | 0 | 0.142 | 0 | 0 | 0 | 2.14 | 0.416 | 0 | 2.66 | 0.121 | 0.0482 | 0 | 0 | 1.23 | 2.19 | 3.85 | 0.213 | 11.4 | 0.235 | 2.53 | 0 | 0 | 0.962 | 1.07 | 0.963 | 1.11 | 0.864 | 1.02 | 0.948 | 2.44 | 1.32
CCC(=O)N1CCN(c2ccc(-n3c(=O)ccc4cnc5ccc(-c6cnc7ccccc7c6)cc5c43)cc2C(F)(F)F)CC1 [Torin1] + O=c1[nH]c2ccccc2n1C1CCN(Cc2ccc(-c3[nH]c4cc5ncnc5cc4nc3-c3ccccc3)cc2)CC1 [Akt inhibitor VIII] | 6.55 | 5.39 | 0.944 | 0.0946 | 3.46 | 4.49 | 1.02 | 0.504 | 5.43 | 11.3 | 9.44 | 5.18 | 0.719 | 9.28 | 2.94 | 0.27 | 7.92 | 0.347 | 16.1 | 17.9 | 13.5 | 3.56 | 10.4 | 9.39 | 1.85 | 14.7 | 6.03 | 0.645 | 0.769 | 0.85 | 0.591 | 0.778 | 0.852 | 0.878 | 0.797 | 0.83
